Results as given in US20160143884A1, “USE OF TETRAHYDROINDAZOLYLBENZAMIDE AND TETRAHYDROINDOLYLBENZAMIDE DERIVATIVES FOR THE TREATMENT OF HUMAN IMMUNODEFICIENCY VIRUS (HIV) AND ACQUIRED IMMUNE DEFICIENCY SYNDROME (AIDS)” (Esanex, Inc., priority 2014, published 2016).

How the values were obtained:
integration = details: Vozzolo et al., J. Biol. Chem. 2010; cited from earlier work
HIV reactivation = details: Anderson et al., PNAS 2014; cited from earlier work
[1] = Toxicity by counting live cells (trypan blue exclusion); format: cell-based; details: live cell count, read-out: Cytotoxicity TC50
Description: (§1) Several additional compounds were also tested for HIV virus inhibition, and the results are show in Table 5. P24 concentration in the supernatant was measured using a commercial ELISA assay. Toxicity was assessed by counting live cells (trypan blue exclusion)

HIV-1 = assay: HIV virus inhibition, p24 in supernatant by ELISA; format: cell-based; details: for EC50: Human immunodeficiency virus 1, HIV-1, p24 ELISA of supernatant
Description: as §1

Hepatitis B Virus (HBV) = assay: Anti-HBV assay, real-time qPCR of extracellular HBV DNA in HepG2 2.2.15; format: cell-based
Description: The anti-HBV assay employed real-time qPCR (TaqMan) to directly measure extracellular HBV DNA copy number. HepG2-2.2.15 cells were plated in 96-well microtiter plates. Only the interior wells were utilized to reduce “edge effects” observed during cell culture; the exterior wells were filled with complete medium to help minimize sample evaporation. After 16-24 hours the confluent monolayer of HepG2-2.2.15 cells was washed and the medium replaced with complete medium containing various concentrations of a test compound in triplicate. 3TC was used as positive control, while media alone was added to cells as negative control (virus control, VC). Three days later the culture medium was replaced with fresh medium containing the appropriately diluted drug. Six days following the initial administration of the test compound, the cell culture supernatant collected, treated with pronase and then used in a real-time quantitative TaqMan qPCR assay. The PCR-amplified HBV DNA was detected in real-time by monitoring increases in fluorescence signals that result from the exonucleolytic degradation of a quenched fluorescent probe molecule that hybridizes to the amplified HBV DNA. For each PCR amplification, a standard curve was simultaneously generated using dilutions of purified HBV DNA. Antiviral activity was calculated from the reduction in HBV DNA levels (IC50). CellTiter 96® AQueous One Solution Cell Proliferation Assay kit (Promega) was employed to measure cell viability which was used to calculate cytotoxicity (TC50). The therapeutic index (TI) was calculated as TC50/IC50.

[2] = Cell viability (CellTiter 96 AQueous One) in HepG2 2.2.15; format: cell-based; details: human, HepG2-2.2.15 cells, read-out: Cytotoxicity TC50
Description: The anti-HBV assay employed real-time qPCR (TaqMan) to directly measure extracellular HBV DNA copy number. HepG2-2.2.15 cells were plated in 96-well microtiter plates. Only the interior wells were utilized to reduce “edge effects” observed during cell culture; the exterior wells were filled with complete medium to help minimize sample evaporation. After 16-24 hours the confluent monolayer of HepG2-2.2.15 cells was washed and the medium replaced with complete medium containing various concentrations of a test compound in triplicate. 3TC was used as positive control, while media alone was added to cells as negative control (virus control, VC). Three days later the culture medium was replaced with fresh medium containing the appropriately diluted drug. Six days following the initial administration of the test compound, the cell culture supernatant collected, treated with pronase and then used in a real-time quantitative TaqMan qPCR assay. The PCR-amplified HBV DNA was detected in real-time by monitoring increases in fluorescence signals that result from the exonucleolytic degradation of a quenched fluorescent probe molecule that hybridizes to the amplified HBV DNA. […] Antiviral activity was calculated from the reduction in HBV DNA levels (IC50). […] The therapeutic index (TI) was calculated as TC50/IC50.

Structure (SMILES)	CC50 [1] [nM]	Selectivity Index TI (TC50/EC50) (HIV-1)	EC50 (HIV-1) [nM]	other results
C=CCNC1=C2C[C@@H](C)C[C@H](OC)[C@H](O)[C@@H](C)/C=C(\C)[C@H](OC(N)=O)[C@@H](OC)/C=C\C=C(/C)C(=O)NC(=CC1=O)C2=O [17-allylamino-17-demethoxy-geldanamycin]				Effect on integration (integration): no effect
CCNC(=O)c1noc(-c2cc(C(C)C)c(O)cc2O)c1-c1ccc(CN2CCOCC2)cc1 [AUY922]				Suppression of HIV reactivation (HIV reactivation): almost completely suppressed
Cc1nn(-c2ccc(C(N)=O)c(NC3CCC(O)CC3)c2)c2c1C(=O)CC(C)(C)C2 (stereo not drawn) [Compound 1, 2-((4-hydroxycyclohexyl)amino)-4-(3,6,6-trimethyl-4-oxo-4,5,6,7-tetrahydro-1H-indazol-1-yl)benzamide]	436	54	8.1	
Cc1nn(-c2ccc(C(N)=O)c(NCCO)c2)c2c1C(=O)CC(C)(C)C2 [Compound 2, 2-((2-hydroxyethyl)amino)-4-(3,6,6-trimethyl-4-oxo-4,5,6,7-tetrahydro-1H-indazol-1-yl)benzamide]	617	12	52	
COCCNc1cc(-n2nc(C)c3c2CC(C)(C)CC3=O)ccc1C(N)=O [Compound 3, 2-((2-methoxyethyl)amino)-4-(3,6,6-trimethyl-4-oxo-4,5,6,7-tetrahydro-1H-indazol-1-yl)benzamide]	1160	901	1.3	
Nc1ccn([C@@H]2CS[C@H](CO)O2)c(=O)n1 [Compound 3TC, 2′,3′-dideoxy-3′-thiacytidine, reference compound]				Selectivity Index TI (TC50/IC50) (Hepatitis B Virus (HBV); HBV in HepG2 2.2.15): >14.0; IC50 (Hepatitis B Virus (HBV); Hepatitis B virus, 144 h, HBV in HepG2 2.2.15, six days, read-out: Antiviral Activity IC50 (reduction in HBV DNA levels)): 35.6 nM; CC50 at 6 days [2]: > 500 nM
CCOCCNc1cc(-n2nc(C)c3c2CC(C)(C)CC3=O)ccc1C(N)=O [Compound 4, 2-((2-ethoxyethyl)amino)-4-(3,6,6-trimethyl-4-oxo-4,5,6,7-tetrahydro-1H-indazol-1-yl)benzamide]	2170	24	89	
Cc1nn(-c2ccc(C(N)=O)c(NCCOCCOCCN)c2)c2c1C(=O)CC(C)(C)C2 [Compound 5, 2-((2-(2-(2-aminoethoxy)ethoxy)ethyl)amino)-4-(3,6,6-trimethyl-4-oxo-4,5,6,7-tetrahydro-1H-indazol-1-yl)benzamide]			2160	
Cc1nn(-c2ccc(C(N)=O)c(NCCCO)c2)c2c1C(=O)CC(C)(C)C2 [Compound 6, 2-((3-hydroxypropyl)amino)-4-(3,6,6-trimethyl-4-oxo-4,5,6,7-tetrahydro-1H-indazol-1-yl)benzamide]			32	
COCCCNc1cc(-n2nc(C)c3c2CC(C)(C)CC3=O)ccc1C(N)=O [Compound 7, 2-((3-methoxypropyl)amino)-4-(3,6,6-trimethyl-4-oxo-4,5,6,7-tetrahydro-1H-indazol-1-yl)benzamide]			81	
CCOCCCNc1cc(-n2nc(C)c3c2CC(C)(C)CC3=O)ccc1C(N)=O [Compound 8, 2-((3-ethoxypropyl)amino)-4-(3,6,6-trimethyl-4-oxo-4,5,6,7-tetrahydro-1H-indazol-1-yl)benzamide]			42	
